Like-named read-outs stand apart in the source and are kept apart here.
Experiment: Single-dose escalation pharmacokinetics in volunteers
Assay type: in vivo, human
Settings: human, mean, n = 6; for Ae: excreted in urine; for AUC(0-inf) / Cmax: free base in plasma
Text: Exposure of the free base form of N-[5-(aminosulfonyl)-4-methyl-1,3-thiazol-2-yl]-N-methyl-2-[4-(2-pyridinyl)-phenyl]acetamide to the human body may be measured by high pressure liquid chromatography (HPLC) by looking at different pharmacokinetic parameters in suitable bodily fluids such as for instance blood plasma and urine, the most common parameters being the Cmax, the so-called area under the curve (AUC), and the terminal half-life (t1/2Z). Hereto, the person skilled in the art understands that said parameters are determined by using adequate bioanalytical methods with adequate sensitivity, specificity, ruggedness, stability and repeatability, as for instance a qualified liquid chromatography triple quad mass spectrometry based method coupled with a suitable extraction method for the separation of the analyte from, e.g. the blood plasma.
Therefore, pharmacokinetic studies in human subjects were undertaken following both single and multiple dose administrations of the crystalline mono mesylate monohydrate salt of N-[5-(aminosulfonyl)-4-methyl-1,3-thiazol-2-yl]-N-methyl-2-[4-(2-pyridinyl)phenyl]acetamide, wherein the particle size distribution is preferably defined by d(0.1) from 2 to 100 μm, d(0.5) from 30 to 210 μm and d(0.9) from 70 to 400 μm with a specific surface area of the particles less than 1.0 m^2/g, and more preferably defined by d(0.1) from 10 to 75 μm, d(0.5) from 100 to 175 μm, d(0.9) from 200 to 350 μm with a specific surface area of the particles less than 0.3 m^2/g.
Single oral doses of the crystalline mono mesylate monohydrate salt of N-[5-(aminosulfonyl)-4methyl1,3thiazol-2-yl]-N-methyl-2-[4-(2-pyridinyl)phenyl]acetamide using the formulations in accordance with example a and Table a, were administered to six volunteers per dose step. The overall shape of the plasma concentrations vs. time profiles were similar across all doses applied (see FIG. 4 and FIG. 6).
Table b: Pharmacokinetic parameters after ascending single oral doses of crystalline mono mesylate monohydrate salt of N-[5-(aminosulfonyl)-4-methyl-1,3-thiazol-2-yl]-N-methyl-2-[4-(2-pyridinyl)phenyl]acetamide in the formulations in accordance with table a wherein the particle size distribution is preferably defined by d(0.1) from 2 to 100 μm, d(0.5) from 30 to 210 μm and d(0.9) from 70 to 400 μm with a specific surface area of the particles less than 1.0 m^2/g, and more preferably defined by d(0.1) from 10 to 75 μm, d(0.5) from 100 to 175 μm, d(0.9) from 200 to 350 μm with a specific surface area of the particles less than 0.3 m^2/g.
AUC0-∞: Area under the analyte vs. time concentration from time of administration up to infinity, calculated as
wherein AUC0-last is defined as the area under the analyte vs. time concentration up to time of the last qualifiable concentration, calculated by linear up/log down summation and Clast is defined as last quantifiable observed analyte concentration. λz is the apparent terminal elimination rate constant, determined by linear regression of terminal points of In-linear analyte concentration-time curve.
Cmax is the maximal observed analyte concentration and tmax is the time to reach Cmax;
t1/2z is defined as the apparent terminal elimination half-life, calculated as
MRT: Mean Residence Time; calculated AUMC divided by AUC, wherein AUMC is the area under the first moment of the concentration-time curve from zero up to ∞ with extrapolation of the terminal phase and AUC is the area under the concentration-time curve from zero up to ∞ with extrapolation of the terminal phase.
CL/F refers to the clearance after oral administration of a drug and Ae refers to the amount of drug excreted in the urine.

[1] = single oral dose 5 mg free base equivalent
[2] = single oral dose 10 mg free base equivalent
[3] = single oral dose 20 mg free base equivalent
[4] = single oral dose 40 mg free base equivalent
[5] = single oral dose 80 mg free base equivalent, females
[6] = single oral dose 80 mg free base equivalent, males
[7] = single oral dose 160 mg free base equivalent
[8] = single oral dose 240 mg free base equivalent
[9] = single oral dose 320 mg free base equivalent
[10] = single oral dose 400 mg free base equivalent
[11] = single oral dose 480 mg free base equivalent
[12] = single oral dose 600 mg free base equivalent

## CS(=O)(=O)O.Cc1nc(N(C)C(=O)Cc2ccc(-c3ccccn3)cc2)sc1S(N)(=O)=O [mono mesylate monohydrate salt, N-[5-(aminosulfonyl)-4-methyl-1,3-thiazol-2-yl]-N-methyl-2-[4-(2-pyridinyl)-phenyl]acetamide mono methanesulfonic acid monohydrate]
[1]
  CL/F: 0.89 L/h
  t1/2z: 80 h
  Ae: 0 % of dose
  AUC(0-inf): 5.8 µg·h/mL
Single oral dose 5 mg free base equivalent, read-out: Cmax
  Cmax: 74 ng/mL
[2]
  CL/F: 0.87 L/h
  t1/2z: 85 h
  Ae: 0 % of dose
  AUC(0-inf): 11.7 µg·h/mL
Single oral dose 10 mg free base equivalent, read-out: Cmax
  Cmax: 170 ng/mL
[3]
  CL/F: 1.10 L/h
  t1/2z: 76 h
  Ae: 0 % of dose
  AUC(0-inf): 18.5 µg·h/mL
Single oral dose 20 mg free base equivalent, read-out: Cmax
  Cmax: 234 ng/mL
[4]
  CL/F: 1.00 L/h
  t1/2z: 72 h
  Ae: 0 % of dose
  AUC(0-inf): 40.7 µg·h/mL
Single oral dose 40 mg free base equivalent, read-out: Cmax
  Cmax: 608 ng/mL
[5]
  CL/F: 0.85 L/h
  t1/2z: 58 h
  Ae: 0.31 % of dose
[6]
  CL/F: 0.94 L/h
  t1/2z: 74 h
  Ae: 0.16 % of dose
[7]
  CL/F: 1.28 L/h
  t1/2z: 63 h
  Ae: 0.15 % of dose
  AUC(0-inf): 131 µg·h/mL
  Cmax: 2613 ng/mL
[8]
  CL/F: 1.15 L/h
  t1/2z: 64 h
  Ae: 0.21 % of dose
  AUC(0-inf): 217 µg·h/mL
  Cmax: 3600 ng/mL
[9]
  CL/F: 1.47 L/h
  t1/2z: 57 h
  Ae: 0.16 % of dose
  AUC(0-inf): 241 µg·h/mL
  Cmax: 4648 ng/mL
[10]
  CL/F: 1.31 L/h
  t1/2z: 57 h
  Ae: 0.15 % of dose
  AUC(0-inf): 320 µg·h/mL
  Cmax: 6926 ng/mL
[11]
  CL/F: 1.33 L/h
  t1/2z: 53 h
  Ae: 0.26 % of dose
  AUC(0-inf): 387 µg·h/mL
  Cmax: 6921 ng/mL
[12]
  CL/F: 2.00 L/h
  t1/2z: 52 h
  Ae: 0.09 % of dose
  AUC(0-inf): 321 µg·h/mL
Single oral dose 600 mg free base equivalent, read-out: Cmax
  Cmax: 6440 ng/mL

From patent US20150374676A1, “HELICASE-PRIMASE INHIBITORS FOR USE IN A METHOD OF TREATING ALZHEIMER'S DISEASE” (AICURIS GMBH & CO. KG, priority 2013, published 2015)
